{"source": "patent US7750166B2", "about": "“Ionic liquids containing a sulfonate anion” (University of South Alabama, priority 2002, dated 2010)", "remark": "listed apart in the source", "key": {"[1]": {"assay": "Solubility in water", "type": "physicochemical"}, "[2]": {"method": "Supercritical applications using CO2 typically operate at temperatures between above 32° C. and pressures above about 1,070 psi."}, "[3]": {"assay": "Solubility in common organic solvents", "type": "physicochemical", "conditions": "such as dichloromethane and acetone", "method": "This example details the synthesis of a tetrabutyl ammonium molten salt of the amide having chemical formula III above. One-tenth of a mole (50 g) of the sodium salt of the amide-sulfonate salt having chemical structure III above (with R2 and R4 being CH2CH3, R1 and R5 each being a 2-ethylhexyl group, and R3 being CH2) was dissolved in 250 mL of dichloromethane, and one-tenth mole (32 g) of tetrabutyl ammonium bromide was added as a solid. The mixture was stirred for a day, after which time the solution was filtered first through filter paper and then through a short plug of silica gel. The eluted dichloromethane solution was quickly washed with water, dried over magnesium sulfate, and the solvent removed in vacuo, leaving the desired product in high yield (64 g, 89%). The product salt is soluble in both water and in several common organic solvents, such as dichloromethane and acetone. The melting range of the resulting salt was less than about 30° C. because the product was a viscous oil at room temperature. The product salt included Bis (N-ethyl-N-(2-ethylhexyl)sulfosuccinate diamide) anion paired with tetrabutyl ammonium cation."}}, "note": "Read-outs that look alike come from different tables or passages of the source."}
{"smiles": "CCCCC(CC)COC(=O)CC(C(=O)OCC(CC)CCCC)S(=O)(=O)[O-].CCCC[N+](C)(CCCC)CCCC", "note": "(stereo not drawn) [Example 2, Me(n-Bu)3N Docusate]", "values": [{"measurement": "Solubility in water", "setting": "[1]", "result": "Hydrophobic"}]}
{"smiles": "CCCCC(CC)COC(=O)CC(C(=O)OCC(CC)CCCC)S(=O)(=O)[O-].CCCC[N+](CCCC)(CCCC)CCCC", "note": "(stereo not drawn) [Example 1, tetrabutylammonium docusate]", "values": [{"measurement": "Solubility in supercritical carbon dioxide (CO2)", "setting": "[2]", "result": "soluble"}]}
{"smiles": "CCCCC(CC)CN(CC)C(=O)CC(C(=O)N(CC)CC(CC)CCCC)S(=O)(=O)[O-].CCCC[N+](CCCC)(CCCC)CCCC", "note": "(stereo not drawn) [Example 11]", "values": [{"measurement": "Solubility in several common organic solvents", "setting": "[3]", "result": "soluble"}, {"measurement": "Solubility in water", "setting": "[1]", "result": "soluble"}]}
{"smiles": "CCCCC(CC)COC(=O)CC(C(=O)OCC(CC)CCCC)S(=O)(=O)[O-].CCCCCCn1cc[n+](C)c1", "note": "(stereo not drawn) [Example 6, 1-n-hexyl-3-methyl imidazolium docusate]", "values": [{"measurement": "Phase behaviour on contact with water", "setting": "addition of additional water to the gel, followed by agitation", "result": "formation of two phases"}, {"measurement": "Phase behaviour on contact with water", "setting": "contacted with 40 volume percent or less of water, even after agitation", "result": "formation of two phases"}, {"measurement": "Phase behaviour on contact with water", "setting": "contacted with 50 volume percent water, agitation", "result": "stiff, visibly monophasic gel"}]}
{"smiles": "CCCCC(CC)COC(=O)CC(C(=O)OCC(CC)CCCC)S(=O)(=O)[O-].CCCCC(CC)COC(=O)CC(C(=O)OCC(CC)CCCC)S(=O)(=O)[O-].C[N+](C)(C)CCCCCC[N+](C)(C)C", "note": "(stereo not drawn) [Example 3, Me3N(CH2)6NMe3 Docusate]", "values": [{"measurement": "Solubility in water", "setting": "[1]", "result": "Hydrophobic"}]}
{"smiles": "CCCCC(CC)COC(=O)CC(C(=O)OCC(CC)CCCC)S(=O)(=O)[O-].CC[N+](CC)(CC)CC", "note": "(stereo not drawn) [Example 5, Et4N Docusate]", "values": [{"measurement": "Solubility in water", "setting": "[1]", "result": "miscible"}]}
